# Measurements published in patent US9567371B2, “Short beta-defensin-derived peptides” (Yeda Research and Development Co. Ltd., priority 2009, dated 2017).
# Peptide text beside a SMILES is read from it.
# Experiments:
# CXCR4 = biological target: T1, CXCR4 (Homo sapiens, UniProt P61073); experiment: CXCR4 membrane expression (flow cytometry); type: cell-based; details: human cord blood CD34+ cells, 1 or 10 μM, 3 hrs
# T1 construct: endogenous in cells; host or cells: human cord blood CD34+ cells, human pre-B-ALL G2 cells, U937 and HL-60 cells
# T1 sequence (P61073 whole entry): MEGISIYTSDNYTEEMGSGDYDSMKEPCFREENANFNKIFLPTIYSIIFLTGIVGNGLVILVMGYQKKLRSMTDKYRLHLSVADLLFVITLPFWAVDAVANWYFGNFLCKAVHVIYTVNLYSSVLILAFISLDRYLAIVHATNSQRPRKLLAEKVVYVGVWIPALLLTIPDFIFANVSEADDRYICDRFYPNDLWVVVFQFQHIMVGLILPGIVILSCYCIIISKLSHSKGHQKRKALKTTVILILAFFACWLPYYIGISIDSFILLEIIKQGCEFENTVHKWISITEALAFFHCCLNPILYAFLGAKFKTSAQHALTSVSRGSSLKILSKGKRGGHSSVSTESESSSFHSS
# Method: FIGS. 10A-10C. TL-1 and cTL1 down-regulate CXCR4 expression on human cord blood CD34^+ and G2 cells. Human cord blood CD34^+ and G2 cells were incubated with 1 or 10 μM TL-1 or cyclic TL-1 for 3 hrs or left untreated (UT), washed, stained with CXCR4 and CCR5 Ab and analyzed by flow cytometry. Representative histograms from 3 separate experiments are shown. FIG. 10A—effect of TL-1 on CXCR4 expression. FIG. 10B—effect of cTL-1 on CXCR4 expression. FIG. 10C—effects of TL-1 and cTL-1 on CCR5 expression.
# Various cell types (1×10^6/mL) were pretreated with the peptides for 3 hrs as described above, washed and then stained in staining buffer (PBS supplemented with 0.5% FCS and 0.01% sodium azide) with mouse anti-human CXCR4-PE, CCR5-FITC (R&D Systems, Minneapolis, Minn.) or CD45-FITC (ImmunoQuality Products, Groningen, The Netherlands) mAbs for 30 min at 4° C. and analyzed by flow cytometry as described (Kalinkovich, A., et al., 2006). Appropriate IgG were used as the isotype controls.
# Recently, it has been shown that HBD3 could induce internalization of CXCR4 but not of CCR5 in the CEM T cells expressing both CXCR4 and CCR5 (Feng, Z. et al., 2006) implying CXCR4 specificity in HBD3 action.
# C57BL/6 mice [1] = experiment: Mobilization assay: hematopoietic progenitor cells (CFU from PB MNC); type: in vivo, mouse
# Method: FIG. 3. Dose-response effect of TL-1 and AK-1 on mobilization of hematopoietic progenitor cells to peripheral blood. C57BL/6 mice were s.c. injected with 1, 5 or 10 mg/kg of TL-1 or AK-1. Control mice were injected with PBS. After 1-1.5 h, mice were sacrificed, peripheral blood mononuclear cells (PB MNC) were separated by Ficoll, seeded into the methylcellulose, and the number of colony-forming units (CFU) was estimated. Data shown are the number of CFU per 2×10^5 seeded PB MNC cells. Vertical bars represent standard deviation of duplicate experiments. *P<0.05 compared to control.
# FIG. 5. TL-1 synergizes with G-CSF to mobilize hematopoietic progenitor cells to peripheral blood. C57BL/6 mice were s.c. injected with 5 mg/kg of AMD3100 (AMD), TL-1, AK-1, TL-1+AMD3100, or AK-1+AMD3100. Other mice were injected with G-CSF, alone or with TL-1 or AMD3100. Control mice were injected with PBS. After 1-1.5 h, mice were sacrificed, peripheral blood mononuclear cells (PB MNC) were separated by Ficoll, seeded into the methylcellulose, and the number of colony-forming units (CFU) was estimated. Data shown are the number of CFU per 2×10^5 seeded PB MNC cells. Vertical bars represent standard deviation of duplicate experiments. *P<0.05 compared to control.
# C57BL/6 mice were injected s.c. with PBS (control), 5 mg/kg AMD3100, or one of the peptides TL-1, cyclic TL-1 and AK-1, at various doses. Another group of mice was s.c. injected with 5 mg/kg AMD3100 together with TL-1, or cyclic TL-1, or AK-1 (all peptides at 5 mg/kg), 1-1.5 hr before sacrifice. An additional group of mice was s.c. injected with-G-CSF at a dose of 5 μg/mouse once a day for 5 days. Mice were sacrificed 4 hrs post last G-CSF injection; 1-1.5 before sacrifice, mice were injected with TL-1, cyclic TL-1 or AK-1, all at 5 mg/kg. Peripheral blood (PB) was collected from mice by cardiac puncture into heparin containing tubes and the number of white blood cells (WBC) per 1 mL of blood was calculated. The tubes were centrifuged, plasma was collected and kept at −20° C. until tested. In order to evaluate the number of progenitor cells, PB mononuclear cells were isolated using Ficoll gradient centrifugation, and seeded (2×10^5 cells/plate) in methylcellulose with cytokines as described (Spiegel, A., et al., 2004, Goichberg, P., et al., 2006). Colonies, reflecting colony-forming units (CFU), were scored after 7 days.
# In the same experiments, blood mononuclear cells were collected and tested for the presence of colony-forming cells reflecting the number of HPC.
# C57BL/6 mice [2] = experiment: Mobilization assay: WBC number in peripheral blood; type: in vivo, mouse
# Method: FIG. 2. Dose-response effect of TL-1 and AK-1 on mobilization of WBC. C57BL/6 mice were s.c. injected with 1, 5 or 10 mg/kg of TL-1 or AK-1. Control mice were injected with phosphate buffered saline (PBS). After 1-1.5 h, mice were sacrificed and WBC number in the PB was calculated. Data shown are the mean±SD of 3 separate experiments. *P<0.05 compared to control.
# FIG. 4. TL-1 synergizes with G-CSF to mobilize WBC. C57BL/6 mice were s.c. injected with G-CSF 2.5 μg/twice a day for four days. Eighteen hrs after the last injection mice were s.c. injected with 5 mg/kg of either TL-1, AK-1 or AMD3100 (AMD), sacrificed 1.5 h later, and the number of WBC was calculated. Control mice were injected with PBS or with TL-1, AK-1 or AMD3100 without pre-treatment with G-CSF. […]
# C57BL/6 mice were injected s.c. with PBS (control), 5 mg/kg AMD3100, or one of the peptides TL-1, cyclic TL-1 and AK-1, at various doses. […] Peripheral blood (PB) was collected from mice by cardiac puncture into heparin containing tubes and the number of white blood cells (WBC) per 1 mL of blood was calculated. […] Colonies, reflecting colony-forming units (CFU), were scored after 7 days.
# The cell mobilizing potential of the peptides was examined in intact C57BL/6 mice, using the protocol applied for AMD3100 (Broxmeyer, H. E., et al., 2005). First, the effect of different doses of the peptides was evaluated. […]
smiles,measurement,setting,value
"N=C(N)NCCC[C@@H]1NC(=O)CNC(=O)[C@H](CCCNC(=N)N)NC(=O)[C@H](CCCCN)NC(=O)[C@H](CCCCN)NC(=O)[C@H](CCCNC(=N)N)NC(=O)[C@H](CCCNC(=N)N)NC(=O)[C@H](CS)NC(=O)[C@H](CS)NC(=O)[C@H](CCCCN)NC1=O [cyclic TL-1, 1,10-cyclo[RGRKCCRRKK]] (cyclo(CCRRKKRGRK))",CXCR4 expression,CXCR4,decreased CXCR4 expression
same,HPC mobilization (colony-forming cells),C57BL/6 mice [1]; 1 mg/kg s.c.,did not induce mobilization of HPC
same,HPC mobilization in combination with AMD3100,C57BL/6 mice [1]; 5 mg/kg each,inhibited AMD3100-induced mobilization
same,"HPC mobilization, peptide alone in the comparison/combination experiments",C57BL/6 mice [1]; 5 mg/kg s.c.,inhibitory effect
same,HPC mobilization (colony-forming cells),"C57BL/6 mice [1]; 5 mg/kg s.c., dose response experiments",did not induce mobilization of HPC
same,HPC mobilization (colony-forming cells),C57BL/6 mice [1]; 10 mg/kg s.c.,inhibitory effect
same,WBC mobilization upon simultaneous injection with AMD3100,C57BL/6 mice [2]; 5 mg/kg s.c. each,decreased its mobilizing capacity
same,"WBC mobilization, dose response","C57BL/6 mice [2]; all tested doses: 1, 5 and 10 mg/kg s.c.",did not induce WBC mobilization
